Laboratory results reported in patent US11866409B2, “Apoptosis related protein in the tgf-beta signaling pathway (ARTS) mimetic compounds, compositions, methods and uses thereof in induction of differentiation and/or apoptosis of premalignant and malignant cells, thereby restoring their normal-like phenotype” (CARMEL-HAIFA UNIVERSITY ECONOMIC CORPORATION LTD., priority 2015, dated 2024).

Experiments:
[1] = biological target: T1, fluorescently labeled Bir3 (His-tagged) domain of XIAP, residues 252-350 (Homo sapiens, UniProt P98170); assay: MicroScale Thermophoresis (MST) binding to Bir3 domain of XIAP; details: 340 nM fl-labeled Bir3, pH 5.6, 2% DMSO, read-out: calculated Kd
T1 construct: His-tagged Bir3 (XIAP 252-350) was expressed and purified; made in house
Experimental: His-tagged Bir3 (XIAP 252-350) was expressed and purified as previously described (Reingewertz et al, 2011). The purified Bir3 was labeled with the Monolith NT™ Protein Labeling Kit RED according to the supplied labeling protocol.
(§1) 340 nM of fl-labeled Bir3 was titrated with A4 compound in 1:1 dilutions beginning at 500 μM, in a 25 mM Tri-Sodium acetate buffer pH 5.6, 2% DMSO and 0.05% Tween 20. The measurements were performed on a NanoTemper Monolith instrument.
(§2) To further characterize the A4 candidate, MicroScale Thermophoresis (MST) was used to evaluate the binding of the A4 compound to fluorescently labeled Bir3 (His-tagged) domain of XIAP, residues 252-350. […] Microscale thermophoresis (MST) is a technology for the interaction analysis of biomolecules. Microscale thermophoresis is the directed movement of particles in a microscopic temperature gradient. Any change of the hydration shell of biomolecules due to changes in their structure/conformation results in a relative change of the movement along the temperature gradient and is used to determine binding affinities. MST allows measurement of interactions directly in solution without the need of immobilization to a surface (immobilization-free technology).

[2] = test system: 293 cells stably expressing Bcl-2 cherry reporter; assay: Combination with BH3 mimetic in Bcl-2 cherry reporter cells; format: cell-based; details: A4 combined with ABT199, 293 cells Bcl-2 cherry reporter
Experimental: pcDNA-3.1 vector carrying Bcl2 with an mCherry fusion c′ terminus fluorescent tag and neomycin (G418) resistance sequences was transfected into HEK 293T cells using Turbofect (Fermentas). Cells were then treated with G418, and resistant fluorescent cells were further sorted and isolated by FACS-sorter. Mono-clones of the stably expressing Bcl2-mCherry and G418 resistance were propagated and used for the experiments.

M2 organoids = M2 organoids in 3D BME culture, polarization and lumen formation; format: cell-based, human
Experimental: Cells were harvested from their growth plates using 0.25% trypsin EDTA. Collected cells were cultured in Cultrex® growth factor reduced Basement Membrane Extract (BME: Trevigen, Inc) as follows: An 8 chamber glass slide system (Lab-TEK® II, Naperville, IL) was coated with 60 μl BME [Barkan D. et al., Cancer Research (2008)](protein concentration between 15 mg/ml; thickness˜1-2 mm). 5×10^3 cells per well were re-suspended in DMEM/F12 supplemented with 2.5% DHS and 2% BME and cultured on the coated slides. Slides were incubated at 37° C., 5% CO2 incubator. Cells were re-fed every 4 days. Cell morphology was monitored by light microscopy. Immunofluorescence images were captured by Nikon A1-R confocal laser scanning microscope (Haifa University, Haifa, Israel).
Laminin5 immunofluorescence staining: was performed as described by Barkan et al., [Cancer Research (2008)]. Briefly, cells cultured in 8 well chamber glass slides in 3D BME, as described above. The cultured cells were fixed and permeabalized for 5 minutes with 4% Paraformaldehyde (PFA) containing 5% sucrose and 0.2% Triton X-100, and re-fixed for an additional 25 minutes with 4% PFA containing 5% sucrose. The cells were washed for 10 minutes with PBS and an additional 10 minutes with PBS containing 0.05% Tween 20 (Sigma). Fixed cells were blocked with 3% BSA in PBS for 1 hour and incubated overnight at 4° C. with primary antibody (Rabbit polyclonal antibody to Laminin-5 (1:200)). The cells were washed three times with PBS for 15 minutes each, and incubated for 1 hour with […] conjugated to Alexa Fluor®647 (Invitrogen), washed as above and mounted with VECTASHIELD mounting medium with 4′,6-diamidino-2-phenylindole (DAPI). For F-actin staining cells were incubated over night with Alexa-Fluor®488 Phalloidin (1:40) (Molecular Probes) washed three times with PBS for 15 minutes each, and mounted with VECTASHIELD mounting medium with DAPI. The slides were imaged using Nikon A1-R confocal laser scanning microscope (Haifa University, Haifa, Israel). […]

[3] = test system: M2 cells (MCF10AT1K, premalignant breast cells); assay: Proliferation assay of M2 cells in 2D culture; format: cell-based, human; details: 24 and 48 hours
Experimental: Human breast cancer cell lines MCF-10A (M1) was received from Prof. Israel Vlodavsky (Technion, Israel), MCF10AT1K (M2) and MCF10ACA1 h (M3) were received from Dr. Fred Miller (Barbara Ann Karmanos Cancer Institute). M1 and M2 cells were maintained in DMEM/F12 supplemented with 5% donor horse serum (DHS), 1% sodium pyrovate, 1% L-glutamine, 0.02 μg/ml epidermal growth factor (EGF; Peprotech), 0.01 mg/ml insulin (Sigma), 0.5 μg/ml hydrocortisone (Sigma), 0.1 μg/ml cholera toxin (Sigma) and 1% penicillin-streptomycin at 37° C., 5% CO2 incubator. M3 cells were maintained in DMEM/F12 supplemented with 5% DHS and 1% penicillin-streptomycin at 37° C. and incubated in 5% CO2 incubator.
The CellTiter 96 AqueousOne Solution of cell proliferation assay kit (Promega) was added to the wells for 2 hours to measure cell proliferation according the manufacturer's instructions. The absorbance was recorded at 490 nm.

XIAP [4] = biological target: T2, XIAP (Homo sapiens, UniProt P98170); assay: Proteasome-mediated degradation study, T47D breast cancer cells; format: cell-based; parameters: endogenous in cells; host or cells: T47D breast cancer cells
Experimental: (§3) The cells were lysed in WCE (whole-cell extract) buffer [[…] Hepes, pH 7.7, 0.3M NaCl, 1.5 mM MgCl2, 0.2 mM EDTA, 0.1% Triton X-100, 100 μg/ml PMSF and protease inhibitor cocktail (Roche, 1:100 dilution)]. 100 μg of total cell protein, measured with the Bio-Rad Protein Assay kit, were separated by SDS-PAGE (12%) followed by transfer for 2 h on to a nitrocellulose membrane. The membrane was blocked with 5% (w/v) non-fat dried skimmed milk powder in PBS supplemented with 0.05% Tween20 (PBS-T) for 1 hour at room temperature (R.T). Membrane was then probed with primary antibody at 4° C. overnight. Next, the membrane was incubated with the appropriate HRP-conjugated secondary antibody, for 1 hour at R.T. and washed 15 min×3 with PBS-T. WesternBright ECL (Advansta) was added to the membrane for 2 min and analyzed using ImageQuant LAS-4000 analyzer (GE Healthcare Life Sciences) & “ImageQuant LAS-4000” software (GE Healthcare Life Sciences). Densitometry analysis was performed using ImageQuant total lab 7 (GE Healthcare Life Sciences), image analysis software.
(§4) T47D breast cancer cells: 1*10^6 T47D cells were seeded on a 10 cm plate in RPMI and were propagated to 80% confluence. Cells were treated for 1 hour with either DMSO (control) or 30 μM A4 together with 20 μM MG-132 (proteasome inhibitor) or without MG-132. […]

XIAP [5] = biological target: T2, XIAP; assay: Western blot, A375 human melanoma cells; format: cell-based; parameters: endogenous in cells; host or cells: A375 human melanoma cells; details: 20 μM, 24 hrs
Experimental: as §3
(§5) The candidate molecules were next subjected to functional assays, examining their ability to induce apoptosis. Therefore, the expression of several apoptotic markers was examined in A375 human melanoma cells exposed to 20 μM of each of the candidate compounds. […] No effect on cCaspase or c-PARP was shown.

XIAP [6] = biological target: T2, XIAP; assay: Proteasome-mediated degradation study, HeLa cervical cancer cells; format: cell-based; parameters: endogenous in cells; host or cells: HeLa cervical cancer cells
Experimental: as §3
(§6) HeLa cervical cancer cells: 1.5*10^6 HeLa cells were seeded on a 10 cm plate in DMEM and were propagated to 80% confluence. Cells were treated for 2 hour with either DMSO (control) or 30 μM A4 together with 20 μM MG-132 (proteasome inhibitor) or without MG-132. […]

[7] = biological target: recombinant GST-tagged XIAP (Homo sapiens, UniProt P98170); assay: MicroScale Thermophoresis (MST) binding to whole XIAP; details: GST-tagged XIAP (FIG. 4D), read-out: calculated Kd
Experimental: as §1, §2
To further characterize the A4 candidate, the MSTtechnology described above was used to evaluate the binding of the A4 compound to recombinant GST-tagged XIAP, as presented in FIG. 4D.

Bcl-2 [8] = assay: Western blot, A375 human melanoma cells; format: cell-based; details: 20 μM, 24 hrs
Experimental: as §3, §5

cCaspase = assay: Western blot, A375 human melanoma cells; format: cell-based; details: 20 μM, 24 hrs
Experimental: as §3, §5

c-PARP = assay: Western blot, A375 human melanoma cells; format: cell-based; details: 20 μM, 24 hrs
Experimental: as §3, §5

Bcl-2 [9] = assay: Proteasome-mediated degradation study, HeLa cervical cancer cells; format: cell-based
Experimental: as §3, §6

Bcl-2 [10] = assay: Proteasome-mediated degradation study, T47D breast cancer cells; format: cell-based
Experimental: as §3, §4

XIAP [11] = assay: Western blot, M2 cells transfected with 6myc-ARTS, caspase inhibition; format: cell-based, human
Experimental: (§7) The cells were transfected with either 6-MycTag-ARTS in pCS2 or sport-ARTS in pCMV plasmid, that was produced in Sarit Larisch lab as described previously (Larisch & Yi […]). For the transfection the Turbofect (Fermentas) was used with concentration of 0.1 μg/l DNA for 6-MycTag-ARTS and sport-ARTS plasmid.
as §3
(§8) The inventors next examined whether caspases mediate the cleavage of the N′-terminal part of ARTS. To this end, the inventors transfected M2 cells with 6myc-ARTS and cells were either untreated or treated with a pan inhibitor of all caspases, Q-VD. […] In contrast, no change in XIAP levels was shown (FIG. 7D).

Bcl-2 [12] = assay: as above; format: cell-based, human
Experimental: as §7, §3, §8

6myc-ARTS = assay: as above; format: cell-based, human
Experimental: as §7, §3, §8

[13] = 30 μM A4 + 20 μM MG-132, 1 hour
[14] = 30 μM A4 + 20 μM MG-132, 2 hour

T2 sequence (P98170 whole entry): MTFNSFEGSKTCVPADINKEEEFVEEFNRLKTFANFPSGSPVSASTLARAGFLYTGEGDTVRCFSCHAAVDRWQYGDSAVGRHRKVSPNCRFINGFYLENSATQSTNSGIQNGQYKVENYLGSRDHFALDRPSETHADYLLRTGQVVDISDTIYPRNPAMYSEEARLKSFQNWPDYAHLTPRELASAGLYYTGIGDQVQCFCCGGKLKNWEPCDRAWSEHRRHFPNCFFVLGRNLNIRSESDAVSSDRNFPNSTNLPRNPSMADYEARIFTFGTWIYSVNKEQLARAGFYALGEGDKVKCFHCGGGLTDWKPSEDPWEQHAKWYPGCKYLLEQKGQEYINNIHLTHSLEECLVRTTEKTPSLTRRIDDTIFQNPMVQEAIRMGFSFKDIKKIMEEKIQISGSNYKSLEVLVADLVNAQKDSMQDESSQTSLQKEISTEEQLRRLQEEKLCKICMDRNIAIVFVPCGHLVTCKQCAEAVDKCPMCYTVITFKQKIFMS
Chain of recombinant GST-tagged XIAP (P98170 whole entry): as above
T1 sequence (P98170 252-350): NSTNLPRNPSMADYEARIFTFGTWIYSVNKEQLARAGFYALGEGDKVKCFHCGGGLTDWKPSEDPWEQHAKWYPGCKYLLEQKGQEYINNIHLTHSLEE

Structure (SMILES): COC(=O)c1[nH]c2ccc(Cl)cc2c1NC(=O)CN1CCN(Cc2ccccc2)CC1 [A4, methyl 5-chloro-3-[[2-[4-(phenylmethyl)piperazin-1-yl]acetyl]amino]-1H-indole-2-carboxylate]
- Kd [1]: 46.1 ± 3.65 µM
- effect of combination with BH3 mimetic [2]: synergetic effect
- apicobasal polarization (GM130, Laminin 5 staining) (M2 organoids; 40 μM, 7 days): initiation of apical staining of GM130 and basal staining of Laminin 5
- organoid phenotype (M2 organoids; 40 uM, 14 days): conversion thereof to a normal-like phenotype
- polarization and lumen formation (M2 organoids; 40 uM, 14 days): apicobasal polarization of M2 organoids followed by luminal formation
- apoptotic cells [3]: only low amount of apoptotic cells
- cell proliferation [3]: decrease in cell proliferation
- XIAP levels with proteasome inhibitor (XIAP [4]; [13]): restored
- XIAP levels (XIAP [4]; 30 μM A4, 1 hour): specific decrease
- levels of XIAP (XIAP [5]): clearly reduced
- XIAP levels with proteasome inhibitor (XIAP [6]; [14]): restored
- XIAP levels (XIAP [6]; 30 μM A4, 2 hour): specific decrease
- Kd [7]: 34.6 ± 2.48 µM
- levels of Bcl-2 (Bcl-2 [8]): clearly reduced
- effect on cCaspase (cCaspase): No effect
- effect on c-PARP (c-PARP): No effect
- Bcl-2 levels with proteasome inhibitor (Bcl-2 [9]; [14]): restored
- Bcl-2 levels (Bcl-2 [9]; 30 μM A4, 2 hour): decrease
- Bcl-2 levels with proteasome inhibitor (Bcl-2 [10]; [13]): restored
- Bcl-2 levels (Bcl-2 [10]; 30 μM A4, 1 hour): decrease

Structure (SMILES): CC(C)[C@H](NC(=O)c1ccc2ccccc2n1)C(=O)N[C@@H](CC(=O)O)C(=O)COc1c(F)cccc1F [Q-VD]
- XIAP levels (XIAP [11]): no change
- Bcl-2 levels (Bcl-2 [12]): significantly increased
- cleaved 6-myc ARTS (6myc-ARTS): decrease
- uncleaved 6myc-ARTS (6myc-ARTS): increase
